Results published in paper PMC12472753, “Fused Imidazotriazole-Based Therapeutics: A Multidisciplinary Study Against Diabetes-Linked Enzymes Alpha-Amylase and Alpha-Glucosidase Using In Vitro and In Silico Methods” (Pharmaceuticals, 2025).

How the values were obtained:
α-glucosidase = α-glucosidase (Saccharomyces cerevisiae, UniProt P53341); type: biochemical; conditions: in vitro, triplicate; read-out: IC50 = α-Glucosidase µM ± SEM
Protocol: The in vitro alpha-glucosidase study was conducted and the enzyme was sourced from Merck (Sigma-Aldrich). The α-glucosidase inhibitory activity was determined following a standard microplate-based method [45]. In each well of a 96-well plate, 35 µL of phosphate buffer (pH 6.8), 31 µL of the test compound solution (50–250 µg/mL), and 18 µL of p-nitrophenyl-α-D-glucopyranoside (pNPG, substrate) were added and pre-incubated at 37 °C for 5 min. The reaction was initiated by the addition of 16 µL of α-glucosidase (0.15 U/mL in phosphate buffer), resulting in a total assay volume of 100 µL. After incubation, the reaction was terminated by adding 100 µL of sodium carbonate (200 mM), and absorbance was recorded at 405 nm using a microplate reader. […] The percentage inhibition was calculated according to the following equation: % inhibition=(Abs control − Abs sample)/Abs control×100
All assays were performed in triplicate to ensure reproducibility.

α-amylase = biological target: T1, α-amylase (Sus scrofa, UniProt P00690); test: Alpha-amylase inhibition assay (DNS method); type: biochemical; conditions: in vitro, triplicate; read-out: IC50 = α-Amylase µM ± SEM
T1 sequence (P00690 16-511): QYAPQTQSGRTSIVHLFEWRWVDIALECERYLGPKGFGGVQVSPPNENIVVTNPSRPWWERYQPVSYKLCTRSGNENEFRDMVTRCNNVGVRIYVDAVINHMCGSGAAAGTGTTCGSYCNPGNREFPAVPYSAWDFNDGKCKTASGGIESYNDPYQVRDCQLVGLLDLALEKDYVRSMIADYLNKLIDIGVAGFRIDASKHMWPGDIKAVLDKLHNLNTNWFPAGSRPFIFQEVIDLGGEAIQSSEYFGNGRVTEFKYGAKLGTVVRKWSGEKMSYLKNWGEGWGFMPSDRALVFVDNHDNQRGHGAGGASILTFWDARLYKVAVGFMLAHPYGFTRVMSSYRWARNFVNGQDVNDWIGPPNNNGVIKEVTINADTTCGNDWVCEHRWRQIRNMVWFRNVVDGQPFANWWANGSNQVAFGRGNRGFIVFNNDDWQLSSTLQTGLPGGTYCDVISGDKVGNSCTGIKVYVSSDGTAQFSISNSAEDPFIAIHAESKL
Protocol: The in vitro alpha-amylase study was conducted and the enzyme was sourced from Merck (Sigma-Aldrich, Hamburg, Germany). The inhibitory activity of the synthesized compounds against α-amylase was evaluated using a standard protocol with slight modifications [44]. In brief, 250 µL of the test compound (prepared at varying concentrations, 50–250 µg/mL) was mixed with 250 µL of starch solution [1% (w/v)] and 250 µL of α-amylase solution (1 U/mL). The reaction mixture was incubated at 20 °C for 3 min, after which enzymatic activity was terminated by the addition of 500 µL of dinitrosalicylic acid (DNS) color reagent. The mixture was then heated in a boiling water bath at 85 °C for 15 min, cooled to room temperature for 5 min, and diluted with 4.5 mL of distilled water to a final volume of 6.0 mL. Absorbance was measured at 540 nm using a UV-visible spectrophotometer. […] The percentage inhibition was calculated and all experiments were conducted in triplicate.

Chain of α-glucosidase (P53341 whole entry): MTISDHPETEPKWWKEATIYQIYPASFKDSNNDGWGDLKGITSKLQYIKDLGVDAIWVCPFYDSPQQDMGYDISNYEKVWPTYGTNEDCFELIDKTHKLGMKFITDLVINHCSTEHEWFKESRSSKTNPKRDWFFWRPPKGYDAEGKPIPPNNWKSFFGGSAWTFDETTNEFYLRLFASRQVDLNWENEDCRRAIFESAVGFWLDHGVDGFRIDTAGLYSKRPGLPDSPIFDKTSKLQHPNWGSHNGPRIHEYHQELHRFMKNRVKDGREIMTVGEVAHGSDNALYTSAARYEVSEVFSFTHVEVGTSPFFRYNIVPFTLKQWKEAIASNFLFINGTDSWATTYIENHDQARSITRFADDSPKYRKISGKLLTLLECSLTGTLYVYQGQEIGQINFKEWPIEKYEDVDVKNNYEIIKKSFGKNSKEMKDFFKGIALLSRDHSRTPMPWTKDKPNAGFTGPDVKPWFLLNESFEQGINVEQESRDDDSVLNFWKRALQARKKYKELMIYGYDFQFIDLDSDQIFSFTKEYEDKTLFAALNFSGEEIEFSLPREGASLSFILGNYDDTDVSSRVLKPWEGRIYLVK

Question: For “5-(2,4-Dihydroxy-5-methylphenyl)-6H-imidazo{1,2-b]{1,2,4]triazole-2-carboxylic acid [Compound 7]”, which IC50 (α-glucosidase) is on record?
Answer: Its IC50 is 7.7 ± 0.2 µM.

Question: What about the IC50 (α-amylase) of the same substance?
Answer: The IC50 was 7.1 ± 0.3 µM.
